In publication PMC5610306, “Identification of a specific agonist of human TAS2R14 from Radix Bupleuri through virtual screening, functional evaluation and binding studies” (Scientific Reports, 2017):
Read-outs that look alike come from different tables or passages of the source. Each block holds one compound with its values, some of them ahead of it.

Experiments:
TAS2R14 [1] = molecular target: T1, TAS2R14 (Homo sapiens, UniProt Q9NYV8); assay: Fluo-4 calcium mobilization, HEK293-TAS2R14-G16gust44 cells; assay type: cell-based
T1 construct: full-length cDNA, stably expressed in HEK293 cells with chimeric G16gust44 (G alpha 16 fused with 44 amino acids of gustducin)
T1 sequence (Q9NYV8 1-317): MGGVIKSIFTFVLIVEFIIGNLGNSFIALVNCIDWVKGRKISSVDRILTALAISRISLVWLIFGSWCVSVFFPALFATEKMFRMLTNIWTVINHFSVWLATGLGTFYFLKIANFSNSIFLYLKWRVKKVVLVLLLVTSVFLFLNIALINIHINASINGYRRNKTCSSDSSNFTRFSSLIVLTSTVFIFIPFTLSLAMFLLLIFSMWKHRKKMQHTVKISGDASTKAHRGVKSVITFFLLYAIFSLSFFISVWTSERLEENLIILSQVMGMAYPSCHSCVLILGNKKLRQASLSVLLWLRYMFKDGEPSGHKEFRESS

TAS2R14 [2] = molecular target: T1, TAS2R14; assay: Fluo-4 calcium mobilization, antagonist mode, HEK293-TAS2R14-G16gust44 cells; assay type: cell-based; settings: in the presence of 10.0 μM aristolochic acid A as agonist, 37 °C, 2.5 mM probenecid in loading buffer

Compound: COc1cccc2c1cc([N+](=O)[O-])c1c(C(=O)O)cc3c(c12)OCO3 [AAA, aristolochic acid A]
EC50 (TAS2R14 [1]): 2 µM

EC50 (TAS2R14 [1]; read-out: EC50): 4.9 µM
Compound: C[C@H]1O[C@@H](O[C@H]2CC[C@@]3(C)[C@@H](CC[C@]4(C)[C@@H]3C=CC3=C5CC(C)(C)CC[C@]5(CO)C(O)C[C@]34C)[C@]2(C)CO)[C@H](O)[C@@H](O[C@@H]2O[C@H](CO)[C@@H](O)[C@H](O)[C@H]2O)[C@H]1O (stereo partly drawn) [SSb, Saikosaponin b]

IC50 (TAS2R14 [2]): 18.5 µM
Compound: sulfamoyl-benzoic acid [SBA]
